# Where “and” joins values, the source holds several entries; their conditions need not be identical. Equal entries are not always repeated. Structures can show the parent of a compound that is named as a salt.
# Conditions: [M+H-H2O]+; instrument: TW; calibrated with polyalanine and drug standards
row,SMILES,collision cross section (N2)
1,COc1cc([C@@H]2c3cc4c(c(O)c3C[C@H]3COC(=O)[C@@H]32)OCO4)cc(OC)c1OC [beta-PELTATIN],189 Å²
2,COc1ccc2c(c1)OC[C@@H](Cc1ccc(OC)c(OC)c1)[C@H]2O [TETRAHYDROSAPPANONE A TRIMETHYL ETHER],172 Å²

# Same assay, conditions: [M+H]+; instrument: TW; calibrated with polyalanine and drug standards
row,collision cross section (N2),SMILES
1,132.9 Å²,C[N+](C)(C)C[C@H](O)CC(=O)[O-] [LEVOCARNITINE]
2,200.9 Å²,CC1(C)O[C@@H]2C[C@H]3[C@@H]4CCC5=CC(=O)CC[C@]5(C)[C@@]4(F)[C@@H](O)C[C@]3(C)[C@]2(C(=O)CCl)O1 [HALCINONIDE]
3,231.9 Å²,C[C@@H]1O[C@@H](O[C@H]2[C@H](Oc3cc(O)c4c(=O)cc(-c5ccc(O)cc5)oc4c3)O[C@H](CO)[C@@H](O)[C@@H]2O)[C@H](O)[C@H](O)[C@H]1O [RHOIFOLIN]
4,139.9 Å²,COc1c2occc2cc2ccc(=O)oc12 [METHOXSALEN]
5,166.6 Å²,CC(C(=O)O)c1ccc(N2Cc3ccccc3C2=O)cc1 (centres undefined) [INDOPROFEN]
6,146.9 Å²,CC(=O)NS(=O)(=O)c1ccc(N)cc1 [SULFACETAMIDE]
7,152.6 Å²,CCOc1ccc2c(c1)C(C)=CC(C)(C)N2 [ETHOXYQUIN]
8,163.4 Å²,Nc1ccc(C(=O)Oc2ccccc2)c(O)c1 [PHENYL AMINOSALICYLATE]
9,135.8 Å²,CCc1cc(C(N)=S)ccn1 [ETHIONAMIDE]
10,159.1 Å²,Cc1noc(NS(=O)(=O)c2ccc(N)cc2)c1C [SULFISOXAZOLE]
11,194.8 Å²,CN(Cc1cnc2nc(N)nc(N)c2n1)c1ccc(C(=O)N[C@@H](CCC(=O)O)C(=O)O)cc1 [METHOTREXATE]
12,182 Å²,COc1ccc(-c2cc(=O)c3c(OC)c(OC)c(OC)c(OC)c3o2)cc1 [TANGERITIN]
13,172.4 Å²,CCCCC1C(=O)N(c2ccccc2)N(c2ccccc2)C1=O [PHENYLBUTAZONE]
14,171.4 Å²,O=C(/C=C/C=C/c1ccc2c(c1)OCO2)N1CCCCC1 [PIPERINE]
15,178.6 Å²,COC1=CC(=O)C[C@@H](C)[C@]12Oc1c(Cl)c(OC)cc(OC)c1C2=O [GRISEOFULVIN]
16,146.9 Å²,CCC1(c2ccccc2)C(=O)NCNC1=O [PRIMIDONE]
17,169.3 Å²,NS(=O)(=O)c1cc(C(=O)O)c(NCc2ccco2)cc1Cl [FUROSEMIDE]
18,141.7 Å²,CCOC(=O)Nc1nc2ccccc2[nH]1 [LOBENDAZOLE]
19,169.3 Å²,C[C@H](CCC(=O)O)[C@H]1CC[C@H]2[C@@H]3CC[C@@H]4CCCC[C@]4(C)[C@H]3CC[C@]12C [URSOCHOLANIC ACID]
20,134.7 Å²,CCCc1cc(=O)[nH]c(=S)[nH]1 [PROPYLTHIOURACIL]
21,161.7 Å²,"COc1cc(O)c2c(=O)cc(C)oc2c1CC=C(C)C [HETEROPEUCENIN, METHYL ETHER]"
22,161.9 Å²,CCCCNC(=O)NS(=O)(=O)c1ccc(C)cc1 [TOLBUTAMIDE]

# Further lines, the compound ahead of its results:
row,SMILES,collision cross section (N2)
1,Nc1ccn([C@@H]2O[C@H](CO)[C@@H](O)[C@@H]2O)c(=O)n1 [CYTARABINE],150.5 Å²
2,Cc1[nH]c(C)c(Cl)c(=O)c1Cl [CLOPIDOL],131.2 Å²
3,CCCC1O[C@@H]2C[C@H]3[C@@H]4CCC5=CC(=O)C=C[C@]5(C)[C@H]4[C@@H](O)C[C@]3(C)[C@]2(C(=O)CO)O1 (some centres undefined) [BUDESONIDE],204.6 Å²
4,C=CCSSSCC=C [DIALLYL TRISULFIDE],126.9 Å²
5,COc1cc(/C=C/C(=O)CC(=O)/C=C/c2ccc(O)c(OC)c2)ccc1O [CURCUMIN],198.5 Å²
6,CC[C@@H](C)C(=O)O[C@H]1[C@H](O)[C@H]2[C@@H](CN3C[C@@H](C)CC[C@H]3[C@@]2(C)O)[C@@H]2C[C@]34O[C@]5(O)[C@@H](OC(=O)[C@@](C)(O)CC)CC[C@@]3(C)[C@@H]5[C@@H](OC(C)=O)[C@@H](OC(C)=O)[C@H]4[C@@]21O [PROTOVERATRINE A],285.2 Å²
7,COc1ccc2c(c1)[nH]c1c(C)nccc12 [HARMINE],144.5 Å²
8,COc1cccc(O)c1O [3-METHOXYCATECHOL],124.7 Å²
9,CC(=O)O[C@H]1CC[C@@]2(C)C(C[C@@H](OC(C)=O)[C@]3(C)C2CC[C@@]2(C)[C@H](c4ccoc4)OC(=O)[C@H]4O[C@]423)C1(C)C (stereo partly drawn) [3beta-ACETOXYDEOXODIHYDROGEDUNIN],219.2 Å²
10,"COc1ccc(/C=C/C(=O)c2cc(O)ccc2O)cc1 [2',5'-DIHYDROXY-4-METHOXYCHALCONE]",162.1 Å²
11,C[C@@](Cc1ccc(O)c(O)c1)(NN)C(=O)O [CARBIDOPA],142.4 Å²
12,CC(=O)O[C@]1(C(C)=O)CC[C@H]2[C@@H]3C=C(Cl)C4=CC(=O)[C@@H]5C[C@@H]5[C@]4(C)[C@H]3CC[C@@]21C [CYPROTERONE ACETATE],199.4 Å²
13,COc1ccc(C(=O)c2ccccc2O)c(O)c1 [DIOXYBENZONE],150 Å²
14,Cc1c(O)c(=O)n(-c2ccccc2)n1C [4-HYDROXYANTIPYRINE],141.4 Å²
15,CCCCCCCCCCCCCCCC(=O)OC[C@H](O)[C@H]1OC(=O)C(O)=C1O [ASCORBYL PALMITATE],204.8 Å²
16,CN1C2C[C@H](OC(=O)[C@H](CO)c3ccccc3)C[C@H]1[C@@H](O)C2 [ANISODAMINE HYDROBROMIDE],171.1 Å²
17,CC(C)=CCC/C(C)=C/COc1ccc2ccc(=O)oc2c1 [AURAPTENE],158.3 Å²
18,CC(=O)O[C@H]1C[C@@H](OC(C)=O)C(C)(C)C2CC(=O)[C@]3(C)C(CC[C@@]4(C)[C@H](C(=O)O)OC(=O)C5OC543)[C@]21C (some centres undefined) [DEACETOXY(7)-7-OXOKHIVORINIC ACID],212.6 Å²
19,CO/N=C(\C(=O)N[C@@H]1C(=O)N2C(C(=O)OCOC(=O)C(C)(C)C)=C(/C=C\c3scnc3C)CS[C@H]12)c1csc(N)n1 [CEFDITORIN PIVOXIL],238 Å²
20,O=c1cccc2n1C[C@@H]1CNC[C@H]2C1 [CYTISINE],137.9 Å²
21,CC(=O)Nc1ccc(S(=O)(=O)c2ccc(NC(C)=O)cc2)cc1 [ACEDAPSONE],171.2 Å²
22,O=C(CCCl)NCc1ccccc1 [BECLAMIDE],142.3 Å²
23,CC[C@@]1(O)C(=O)OCc2c1cc1n(c2=O)Cc2cc3cc(O)ccc3nc2-1 [10-HYDROXYCAMPTOTHECIN],187 Å²
24,CC(=O)O[C@H]1C[C@@H](O)C(C)(C)C2C[C@@H](OC(C)=O)[C@]3(C)C(CC[C@@]4(C)[C@H](c5ccoc5)OC(=O)C5OC543)[C@]21C (some centres undefined) [3-DEACETYLKHIVORIN],215.9 Å²
25,O=C(O)c1cc(-c2ccccc2)nc2ccccc12 [CINCHOPHEN],154.3 Å²
26,Cn1c(=O)c2[nH]c(C3CCCC3)nc2n(C)c1=O [8-CYCLOPENTYLTHEOPHYLLINE],158.6 Å²
27,Nc1ncnc2c1ncn2[C@@H]1O[C@H](COP(=O)(O)O)[C@@H](O)[C@H]1O [ADENOSINE PHOSPHATE],167.6 Å²

# Same assay, conditions: [M+Na]+; instrument: TW; calibrated with polyalanine and drug standards
row,SMILES,collision cross section (N2)
1,OC[C@H]1O[C@H](O[C@]2(CCl)O[C@H](CCl)[C@@H](O)[C@@H]2O)[C@H](O)[C@@H](O)[C@H]1Cl [SUCRALOSE],177.2 Å²
2,CC(C)(O)[C@@H]1[C@H]2OC(=O)[C@@H]1[C@]1(O)C[C@H]3O[C@]34C(=O)O[C@H]2[C@]14C [PICROTIN],173.7 Å²

# Conditions: [M+H2O-H]-; instrument: DT; single field, calibrated with ESI Low Concentration Tuning Mix (Agilent)
row,SMILES,collision cross section (N2)
1,CCCCC(CC)COC(=O)c1ccccc1C(=O)OCC(CC)CCCC (centres undefined) [BIS(2-ETHYLHEXYL)PHTHALATE],203 Å²

# Same assay, conditions: [M+H]+; instrument: DT; single field, calibrated with ESI Low Concentration Tuning Mix (Agilent)
row,collision cross section (N2),SMILES
1,131.4 Å²,Cc1ncc(CO)c(C=O)c1O [PYRIDOXAL]
2,136.7 Å²,O=C(O)c1cc(=O)c2ccccc2[nH]1 [KYNURENATE]

# Continued, compound first:
row,SMILES,collision cross section (N2)
1,Cn1cncc1CCN [3-METHYLHISTAMINE],123.8 Å²
2,CCCCC(CC)COC(=O)c1ccccc1C(=O)OCC(CC)CCCC (centres undefined) [BIS(2-ETHYLHEXYL)PHTHALATE],212.2 Å²
3,C[N+](C)(C)CCOP(=O)([O-])OP(=O)(O)OC[C@H]1O[C@@H](n2ccc(N)nc2=O)[C@H](O)[C@@H]1O [CITICOLINE],198.3 Å²
4,"CC(=O)c1ccc(O)cc1O [2',4'-DIHYDROXYACETOPHENONE]",127.2 Å²
5,CC(C)(N)C(=O)O [2-AMINOISOBUTYRATE],123.8 Å²
6,Cc1cnc(=O)[nH]c1N [5-METHYLCYTOSINE],121 Å² and 125.4 Å²

# Same assay, conditions: [M+Na-2H]-; instrument: DT; single field, calibrated with ESI Low Concentration Tuning Mix (Agilent)
row,SMILES,collision cross section (N2)
1,C[N+](C)(C)CCOP(=O)([O-])OP(=O)(O)OC[C@H]1O[C@@H](n2ccc(N)nc2=O)[C@H](O)[C@@H]1O [CITICOLINE],210.2 Å²
2,Cc1cn([C@H]2C[C@H](O)[C@@H](COP(=O)(O)OP(=O)(O)OC3O[C@H](CO)[C@@H](O)[C@H](O)[C@H]3O)O2)c(=O)[nH]c1=O (stereo partly drawn) [DTDP-D-GLUCOSE],218.2 Å²

# Same assay, conditions: [M+Na]+; instrument: DT; single field, calibrated with ESI Low Concentration Tuning Mix (Agilent)
row,collision cross section (N2),SMILES
1,142.8 Å²,Cc1ncc(CO)c(C=O)c1O [PYRIDOXAL]
2,151.1 Å²,O=C(O)c1cc(=O)c2ccccc2[nH]1 [KYNURENATE]
3,209.9 Å²,Cc1cn([C@H]2C[C@H](O)[C@@H](COP(=O)(O)OP(=O)(O)OC3O[C@H](CO)[C@@H](O)[C@H](O)[C@H]3O)O2)c(=O)[nH]c1=O (stereo partly drawn) [DTDP-D-GLUCOSE]

# The next lines start with the compound.
row,SMILES,collision cross section (N2)
1,C[N+](C)(C)CCOP(=O)([O-])OP(=O)(O)OC[C@H]1O[C@@H](n2ccc(N)nc2=O)[C@H](O)[C@@H]1O [CITICOLINE],207.8 Å²
2,Cc1cnc(=O)[nH]c1N [5-METHYLCYTOSINE],135.5 Å²

# Same assay, conditions: [M-H]-; instrument: DT; single field, calibrated with ESI Low Concentration Tuning Mix (Agilent)
row,collision cross section (N2),SMILES
1,129 Å²,Cc1ncc(CO)c(C=O)c1O [PYRIDOXAL]
2,133.9 Å²,O=C(O)c1cc(=O)c2ccccc2[nH]1 [KYNURENATE]
3,209.5 Å²,Cc1cn([C@H]2C[C@H](O)[C@@H](COP(=O)(O)OP(=O)(O)OC3O[C@H](CO)[C@@H](O)[C@H](O)[C@H]3O)O2)c(=O)[nH]c1=O (stereo partly drawn) [DTDP-D-GLUCOSE]

# More lines, now with the values behind:
row,SMILES,collision cross section (N2)
1,C[N+](C)(C)CCOP(=O)([O-])OP(=O)(O)OC[C@H]1O[C@@H](n2ccc(N)nc2=O)[C@H](O)[C@@H]1O [CITICOLINE],205.9 Å²
2,"CC(=O)c1ccc(O)cc1O [2',4'-DIHYDROXYACETOPHENONE]",126.3 Å²

# From the C3SDB collision cross section collection
